Experimental data taken from article PMC3066644 (Journal of Lipids, 2010).

Columns and labels:
acid ceramidase (aCDase) [1] = target: T1, acid ceramidase (aCDase) (Homo sapiens, UniProt Q13510); assay: micellar aCDase assay at […] inhibitor, recombinant human enzyme; assay type: biochemical
T1 construct: gene ASAH1
T1 sequence (Q13510 22-142): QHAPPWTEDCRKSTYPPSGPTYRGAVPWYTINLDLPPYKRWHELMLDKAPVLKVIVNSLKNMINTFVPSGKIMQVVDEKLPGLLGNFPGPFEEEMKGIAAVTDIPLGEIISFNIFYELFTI
T1 sequence (Q13510 143-395): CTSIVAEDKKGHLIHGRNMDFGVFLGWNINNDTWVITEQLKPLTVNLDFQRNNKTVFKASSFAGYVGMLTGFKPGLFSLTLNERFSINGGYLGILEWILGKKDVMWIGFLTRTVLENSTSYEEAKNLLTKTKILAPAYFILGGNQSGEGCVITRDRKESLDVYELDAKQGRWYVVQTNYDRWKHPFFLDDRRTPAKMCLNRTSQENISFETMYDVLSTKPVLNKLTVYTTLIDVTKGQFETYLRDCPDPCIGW

acid ceramidase (aCDase) [2] = target: T1, acid ceramidase (aCDase); assay: micellar aCDase assay with recombinant human enzyme, HPLC fluorescence detection of sphingosine; assay type: biochemical

Row | Structure (SMILES) | micellar aCDase assay at 2.5 μM inhibitor, recombinant human enzyme (acid ceramidase (aCDase) [1]) | IC50 (acid ceramidase (aCDase) [2]) [nM]
1 | CCCCCCCCCCCCCC(=O)NCC(O)c1cccnc1 (racemic) [DP24c, N-(2-Hydroxy-2-(Pyridin-3-yl)-Ethyl)Tetradecanamide] | Although DP24c provides a basic moiety, it showed at least the same inhibition as DP24a or DP24b | 
2 | CCCCCCCCCCCCCCNC(=O)NCC(O)c1cccnc1 (racemic) [DP25c, 1-(2-Hydroxy-2-(Pyridin-3-yl)Ethyl)-3-Tetradecylurea] | Evaluation in the aCDase assay revealed only a slightly better inhibition | 
3 | CCCCCCCCCCCCCCNC(=O)NCC(O)c1ccccc1 (racemic) [DP25a, 1-(2-Hydroxy-2-Phenylethyl)-3-Tetradecylurea] | Evaluation in the aCDase assay revealed only a slightly better inhibition | 
4 | CCCCCCCCCCCCCC(=O)NCC(O)c1ccccc1 (racemic) [DP24a, N-(2-Hydroxy-2-Phenylethyl)-Tetradecanamide] |  | 1290
